Experimental data published in patent US20090142347A1, “Tissue-Nonspecific Alkaline Phosphatase (TNAP): a Therapeutic Target for Arterial Calcification” (THE BURNHAM INSTITUTE FOR MEDICAL RESEARCH, priority 2004, published 2009).

Tests used:
[1] = molecular target: hTNALP D433 (Homo sapiens, UniProt P05186, R450D); test: biochemical
[2] = molecular target: hTNALP (Homo sapiens, UniProt P05186); test: biochemical
[3] = molecular target: hTNALP A168 (Homo sapiens, UniProt P05186, D185A); test: biochemical
Chain of hTNALP A168 (P05186 18-501 D185A): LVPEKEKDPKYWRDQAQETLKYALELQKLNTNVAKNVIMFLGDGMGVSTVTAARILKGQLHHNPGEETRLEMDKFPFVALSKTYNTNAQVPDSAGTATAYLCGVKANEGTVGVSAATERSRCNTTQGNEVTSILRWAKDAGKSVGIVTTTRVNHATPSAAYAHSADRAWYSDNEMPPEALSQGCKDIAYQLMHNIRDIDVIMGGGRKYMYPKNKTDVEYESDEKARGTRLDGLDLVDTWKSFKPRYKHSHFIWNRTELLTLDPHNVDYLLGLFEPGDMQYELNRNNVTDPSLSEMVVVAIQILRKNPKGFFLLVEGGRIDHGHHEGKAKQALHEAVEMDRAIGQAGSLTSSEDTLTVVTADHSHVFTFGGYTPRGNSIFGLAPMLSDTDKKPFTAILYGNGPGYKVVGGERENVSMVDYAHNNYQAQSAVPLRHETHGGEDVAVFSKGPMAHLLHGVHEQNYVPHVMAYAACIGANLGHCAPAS

[4] = molecular target: hTNALP N120 (Homo sapiens, UniProt P05186, S137N); test: biochemical
Chain of hTNALP N120 (P05186 18-501 S137N): as the sequence (P05186 18-501 D185A) above, with S120N, A168D counted along it

[5] = molecular target: T1, chTNALP (Gallus gallus, UniProt Q92058); test: Ki of uncompetitive inhibitors (pNPP substrate); type: biochemical, chicken; conditions: read-out: Ki for various inhibitors
T1 sequence (Q92058 17-498): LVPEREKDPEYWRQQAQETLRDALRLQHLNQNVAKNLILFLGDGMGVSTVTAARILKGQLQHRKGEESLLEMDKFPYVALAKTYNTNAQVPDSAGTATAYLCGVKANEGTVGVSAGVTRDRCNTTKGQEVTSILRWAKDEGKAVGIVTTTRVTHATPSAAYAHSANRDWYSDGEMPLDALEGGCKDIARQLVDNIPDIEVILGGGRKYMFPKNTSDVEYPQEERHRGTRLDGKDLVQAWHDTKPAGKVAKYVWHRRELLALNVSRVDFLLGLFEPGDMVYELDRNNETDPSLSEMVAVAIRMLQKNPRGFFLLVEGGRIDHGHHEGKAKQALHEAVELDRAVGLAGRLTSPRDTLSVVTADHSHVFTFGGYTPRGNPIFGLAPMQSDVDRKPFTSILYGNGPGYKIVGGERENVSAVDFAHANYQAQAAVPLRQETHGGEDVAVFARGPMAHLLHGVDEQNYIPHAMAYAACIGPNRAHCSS
Excerpt: (See Kozlenkov A, et al., 2002). […] TNAP and PLAP structures were superimposed and the amino acid differences within a 12 Å radius around the catalytic Zn1 ion were pinpointed. The difference between human TNAP and chicken TNAP were also mapped because it is reported that chicken TNAP is much less susceptible to levamisol than is human TNAP. In total, six positions with amino acid differences were found, which could be clustered into two groups. […] In addition, […] and […] were also investigated.

[6] = molecular target: hTNALP (F104, Q109) (Homo sapiens, UniProt P05186, E125F/G126Q); test: biochemical
Chain of hTNALP (F104, Q109) (P05186 whole entry E125F/G126Q): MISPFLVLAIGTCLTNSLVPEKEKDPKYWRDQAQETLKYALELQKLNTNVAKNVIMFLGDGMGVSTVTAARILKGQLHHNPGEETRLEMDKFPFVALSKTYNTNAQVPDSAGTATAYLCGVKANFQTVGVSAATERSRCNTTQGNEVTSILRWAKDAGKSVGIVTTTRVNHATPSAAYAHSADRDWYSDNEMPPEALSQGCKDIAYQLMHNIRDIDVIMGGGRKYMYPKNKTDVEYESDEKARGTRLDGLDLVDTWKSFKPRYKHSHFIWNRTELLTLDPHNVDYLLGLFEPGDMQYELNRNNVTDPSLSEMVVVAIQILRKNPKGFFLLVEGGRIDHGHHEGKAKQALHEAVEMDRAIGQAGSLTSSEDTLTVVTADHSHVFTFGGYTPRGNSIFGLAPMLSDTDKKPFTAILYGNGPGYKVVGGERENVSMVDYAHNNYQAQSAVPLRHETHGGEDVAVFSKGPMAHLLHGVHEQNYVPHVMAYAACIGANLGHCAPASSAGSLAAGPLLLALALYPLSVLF

[7] = molecular target: hTNALP D120 (Homo sapiens, UniProt P05186, S137D); test: biochemical
Chain of hTNALP D120 (P05186 18-501 S137D): as the sequence (P05186 18-501 D185A) above, with S120D, A168D counted along it

[8] = molecular target: hTNALP A434 (Homo sapiens, UniProt P05186, H451A); test: biochemical
Chain of hTNALP A434 (P05186 18-501 H451A): as the sequence (P05186 18-501 D185A) above, with A168D, H434A counted along it

[9] = molecular target: hTNALP B434 (Homo sapiens, UniProt P05186, H451E); test: biochemical
Chain of hTNALP B434 (P05186 whole entry H451E): as the sequence (P05186 whole entry E125F/G126Q) above, with F125E, Q126G, H451E counted along it

[10] = molecular target: hTNALP A166 (Homo sapiens, UniProt P05186, D183A); test: biochemical
Chain of hTNALP A166 (P05186 18-501 D183A): as the sequence (P05186 18-501 D185A) above, with D166A, A168D counted along it

[11] = molecular target: hTNALP A108 (Homo sapiens, UniProt P05186, E125A); test: biochemical
Chain of hTNALP A108 (P05186 18-501 E125A): as the sequence (P05186 18-501 D185A) above, with E108A, A168D counted along it

[12] = molecular target: hTNALP A120 (Homo sapiens, UniProt P05186, S137A); test: biochemical
Chain of hTNALP A120 (P05186 18-501 S137A): as the sequence (P05186 18-501 D185A) above, with S120A, A168D counted along it

[13] = molecular target: hTNALP G434 (Homo sapiens, UniProt P05186, H451G); test: biochemical
Chain of hTNALP G434 (P05186 18-501 H451G): as the sequence (P05186 18-501 D185A) above, with A168D, H434G counted along it

[14] = molecular target: hTNALP A371 (Homo sapiens, UniProt P05186, Y388A); test: biochemical
Chain of hTNALP A371 (P05186 18-501 Y388A): as the sequence (P05186 18-501 D185A) above, with A168D, Y371A counted along it

[15] = molecular target: hTNALP N166 (Homo sapiens, UniProt P05186, D183N); test: biochemical
Chain of hTNALP N166 (P05186 18-501 D183N): as the sequence (P05186 18-501 D185A) above, with D166N, A168D counted along it

[16] = molecular target: hTNALP S434 (Homo sapiens, UniProt P05186, H451S); test: biochemical
Chain of hTNALP S434 (P05186 18-501 H451S): as the sequence (P05186 18-501 D185A) above, with A168D, H434S counted along it

[17] = molecular target: hTNALP A109 (Homo sapiens, UniProt P05186, G126A); test: biochemical
Chain of hTNALP A109 (P05186 18-501 G126A): as the sequence (P05186 18-501 D185A) above, with G109A, A168D counted along it

[18] = molecular target: hTNALP Q434 (Homo sapiens, UniProt P05186, H451Q); test: biochemical
Chain of hTNALP Q434 (P05186 18-501 H451Q): as the sequence (P05186 18-501 D185A) above, with A168D, H434Q counted along it

[19] = molecular target: hTNALP N168 (Homo sapiens, UniProt P05186, D185N); test: biochemical
Chain of hTNALP N168 (P05186 18-501 D185N): as the sequence (P05186 18-501 D185A) above, with A168N counted along it

[20] = molecular target: hTNALP Q109 (Homo sapiens, UniProt P05186, G126Q); test: biochemical
Chain of hTNALP Q109 (P05186 18-501 G126Q): as the sequence (P05186 18-501 D185A) above, with G109Q, A168D counted along it

[21] = molecular target: hTNALP F108 (Homo sapiens, UniProt P05186, E125F); test: biochemical
Chain of hTNALP F108 (P05186 18-501 E125F): as the sequence (P05186 18-501 D185A) above, with E108F, A168D counted along it

[22] = molecular target: hTNALP A433 (Homo sapiens, UniProt P05186, R450A); test: biochemical
Chain of hTNALP A433 (P05186 18-501 R450A): as the sequence (P05186 18-501 D185A) above, with A168D, R433A counted along it

[23] = molecular target: T2, hPLALP (E107, G108) (Homo sapiens, UniProt P05187, F129E/Q130G); test: Ki of uncompetitive inhibitors (pNPP substrate); type: biochemical; conditions: hPLALP mutant (E107, G108); read-out: Ki for various inhibitors
T2 construct: made in house; host or cells: COS-7 (given only for the TNAP-Flag constructs)
T2 sequence (P05187 23-506 F129E/Q130G limits assumed): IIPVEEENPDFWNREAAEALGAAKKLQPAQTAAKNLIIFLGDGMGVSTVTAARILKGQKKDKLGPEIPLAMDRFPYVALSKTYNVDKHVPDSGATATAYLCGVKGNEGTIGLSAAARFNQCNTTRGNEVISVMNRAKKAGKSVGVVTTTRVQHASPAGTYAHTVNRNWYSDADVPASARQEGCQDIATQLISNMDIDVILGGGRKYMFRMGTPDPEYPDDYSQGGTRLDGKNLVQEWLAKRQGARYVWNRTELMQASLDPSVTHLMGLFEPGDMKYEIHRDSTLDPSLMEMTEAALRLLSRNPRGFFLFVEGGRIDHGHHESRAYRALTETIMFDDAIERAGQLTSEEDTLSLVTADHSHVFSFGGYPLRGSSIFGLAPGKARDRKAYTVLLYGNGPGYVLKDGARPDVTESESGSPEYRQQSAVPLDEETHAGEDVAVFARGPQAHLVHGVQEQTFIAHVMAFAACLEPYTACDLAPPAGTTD
Procedure: (§1) In brief, samples of the enzymes were added to microtiter plates coated with M2 anti-FLAG antibody, and saturating activities with the substrate pNPP were measured in 1 M DEA/HCl buffer, pH 9.8, containing 1 mM MgCl2 and 20 .micro.M ZnCl2.

[24] = molecular target: T3, hPLALP E107 (Homo sapiens, UniProt P05187, F129E); test: Ki of uncompetitive inhibitors (pNPP substrate); type: biochemical; conditions: hPLALP mutant E107; read-out: Ki for various inhibitors
T3 construct: made in house
T3 sequence (P05187 23-506 F129E limits assumed): as the sequence (P05187 23-506 F129E/Q130G limits assumed) above, with G108Q counted along it
Procedure: as §1

[25] = molecular target: T4, hPLALP (G108, G429) (Homo sapiens, UniProt P05187, E451G/Q130G); test: Ki of uncompetitive inhibitors (pNPP substrate); type: biochemical; conditions: hPLALP mutant (G108, G429); read-out: Ki for various inhibitors
T4 construct: made in house; host or cells: COS-7 (given only for the TNAP-Flag constructs)
T4 sequence (P05187 23-506 Q130G/E451G limits assumed): as the sequence (P05187 23-506 F129E/Q130G limits assumed) above, with E107F, E429G counted along it
Procedure: as §1

Chain of hTNALP (P05186 18-501): as the sequence (P05186 18-501 D185A) above, with A168D counted along it
Chain of hTNALP D433 (P05186 whole entry R450D): as the sequence (P05186 whole entry E125F/G126Q) above, with F125E, Q126G, R450D counted along it

Structure (SMILES) | Ki [1] | Ki [2] | Ki [3] | Ki [4] | Ki [5] | Ki [6] | Ki [7] | Ki [8] | Ki [9] | Ki [10] | Ki [11] | Ki [12] | Ki [13] | Ki [14] | Ki [15] | Ki [16] | Ki [17] | Ki [18] | Ki [19] | Ki [20] | further results
N[C@@H](Cc1ccccc1)C(=O)O [L-Phe, L-phenylalanine] | 23 ± 5 mM | 19 ± 6 mM | 30 ± 4 mM | 23 ± 8 mM | 11 ± 0.9 mM | 2.1 ± 0.4 mM | 34 ± 4 mM | 21 ± 6 mM | 43 ± 8 mM | 24 ± 4 mM | 27 ± 4 mM | 24 ± 2 mM | 9.6 ± 1 mM | 65 ± 24 mM | 32 ± 5 mM | 13 ± 2 mM | 20 ± 4 mM | 9.8 ± 1 mM | 42 ± 6 mM | 4 ± 1.1 mM | Ki [21]: 3.7 ± 0.5 mM; Ki [22]: 31 ± 3 mM; Ki [23]: 23 ± 2 mM; Ki [24]: 3.8 ± 0.4 mM; Ki [25]: 0.49 ± 0.06 mM
N=C(N)NCCCC[C@H](N)C(=O)O [L-hArg, L-homoarginine] | 1.5 ± 0.2 mM | 1.4 ± 0.1 mM | 1.5 ± 0.3 mM | 1.3 ± 0.1 mM | 1.9 ± 0.2 mM | 15 ± 2 mM | 1.4 ± 0.1 mM | 1.5 ± 0.1 mM | 6.8 ± 0.5 mM | 1.6 ± 0.3 mM | 14 ± 1 mM | 1.4 ± 0.1 mM | 1.6 ± 0.2 mM | 31 ± 3 mM | 1.8 ± 0.1 mM | 1.6 ± 0.1 mM | 1.3 ± 0.2 mM | 2 ± 0.1 mM | 1.8 ± 0.1 mM | 1.6 ± 0.1 mM | Ki [21]: 48 ± 11 mM; Ki [22]: 1.6 ± 0.2 mM; Ki [23]: 12 ± 1.6 mM; Ki [24]: 5.7 ± 0.9 mM; Ki [25]: 18 ± 2 mM
